The values that follow come from patent US20240390340A1 (INCYTE CORPORATION, priority 2023, published 2024).

The structures appear in SMILES notation.

For the test, the system named is KRAS. The test can be described thus: KRAS inhibition, assay not specified (at least one assay described herein). The settings on record: Peak 1 versus Peak 2 of prep. LCMS; assay not stated.
`[2H]C([2H])([2H])O[C@H]1CC[C@@H]1O[C@H]1C[C@H](c2cc3c(C)nc4c(F)c(-c5cccc(Cl)c5Cl)c(CCC#N)cc4c3n2[C@H]2[C@H]3CN[C@@H]2C3)N(C(=O)C2CC2)C1` (single isomer, unassigned) [Example 80, Diastereomer 1 (Peak 1)]: the “potency of the separated diastereoisomer (atropisomer) in words” value (from here on “potency of the separated diastereoisomer”) is “potent”.
Regarding `Cc1nc2c(F)c(-c3cccc(Cl)c3Cl)c(CCC#N)cc2c2c1cc([C@H]1C[C@](C)(OCc3ccccc3)CN1C(=O)C1CC1)n2[C@H]1[C@H]2CN[C@@H]1C2` (single isomer, unassigned) [Example 81, Diastereomer 1 (Peak 1)], the “potency of the separated diastereoisomer” value is “potent”.
Next, `C[C@@H]1[C@@H](Oc2c(F)ccnc2Cl)C[C@H](c2cc3c([C@@H](C)O)nc4c(F)c(-c5cccc(Cl)c5Cl)c(CCC#N)cc4c3n2[C@H]2[C@H]3CN[C@@H]2C3)N1C(=O)C1CC1` (single isomer, unassigned) [Example 64, Diastereomer 1 (Peak 1)]: “potent”.
On to `C[C@@H]1[C@@H](Oc2cc(F)ccn2)C[C@H](c2cc3c([C@@H](C)O)nc4c(F)c(-c5cccc(Cl)c5Cl)c(CCC#N)cc4c3n2[C@H]2[C@H]3CN[C@@H]2C3)N1C(=O)C1CC1` (single isomer, unassigned) [Example 63, Diastereomer 1 (Peak 1)], for which the “potency of the separated diastereoisomer” value is “potent”.
For the compound `COc1cc(O[C@H]2C[C@H](c3cc4c([C@@H](C)O)nc5c(F)c(-c6cccc(Cl)c6Cl)c(CCC#N)cc5c4n3[C@H]3[C@H]4CN[C@@H]3C4)N(C(=O)C3(C)CC3)[C@@H]2C)c(F)cn1` (single isomer, unassigned) [Example 52, Diastereomer 1 (Peak 1)], the “potency of the separated diastereoisomer” value is listed as “potent”.
The entry for `COc1ccc(O[C@H]2C[C@H](c3cc4c([C@@H](C)O)nc5c(F)c(-c6cccc(Cl)c6Cl)c(CCC#N)cc5c4n3[C@H]3[C@H]4CN[C@@H]3C4)N(C(=O)C3CC3)C2)cn1` (single isomer, unassigned) [Example 76, Diastereomer 1 (Peak 1)] is “potent”; for `C[C@@H](O)c1nc2c(F)c(-c3cccc(Cl)c3Cl)c(CCC#N)cc2c2c1cc([C@H]1[C@@H](F)[C@H](Oc3ccccn3)CN1C(=O)C1CC1)n2[C@H]1[C@H]2CN[C@@H]1C2` (single isomer, unassigned) it is “potent”; for `Cc1nc2c(F)c(-c3cccc(Cl)c3Cl)c(CCC#N)cc2c2c1cc([C@H]1C[C@H](OC3(C)CCC3)CN1C(=O)C1CC1)n2[C@H]1[C@H]2CN[C@@H]1C2` (single isomer, unassigned) [Example 78, Diastereomer 1 (Peak 1)] it is “potent”.
The entry for `COc1nccc(O[C@H]2C[C@H](c3cc4c([C@@H](C)O)nc5c(F)c(-c6cccc(Cl)c6Cl)c(CCC#N)cc5c4n3[C@H]3[C@H]4CN[C@@H]3C4)N(C(=O)C3CC3)C2)c1F` (single isomer, unassigned) [Example 53, Diastereomer 1 (Peak 1)] is “potent”.
The entry for `COC[C@@H]1[C@@H](Oc2cc(OC)ncc2F)C[C@H](c2cc3c([C@@H](C)O)nc4c(F)c(-c5cccc(Cl)c5Cl)c(CCC#N)cc4c3n2[C@H]2[C@H]3CN[C@@H]2C3)N1C(=O)C1CC1` (single isomer, unassigned) is “potent”; for `COc1ncccc1O[C@H]1C[C@H](c2cc3c(C)nc4c(F)c(-c5cccc(Cl)c5Cl)c(CCC#N)cc4c3n2[C@H]2[C@H]3CN[C@@H]2C3)N(C(=O)C2CC2)C1` (single isomer, unassigned) [Example 1, Diastereomer 1 (Peak 1)] it is “potent”.
On to `C[C@@H](O)c1nc2c(F)c(-c3cccc(Cl)c3Cl)c(CCC#N)cc2c2c1cc([C@H]1[C@H](O)[C@H](Oc3ccccn3)CN1C(=O)C1CC1)n2[C@H]1[C@H]2CN[C@@H]1C2` (single isomer, unassigned), for which the “potency of the separated diastereoisomer” value is given as “potent”.
